≈ marks a conversion by molar mass, not a printed value.
Assay: Solubility test in FaSSIF at 37° C.
Type: physicochemical
Conditions: FaSSIF (Fasted State Simulated Intestinal Fluid), thermodynamic from solid
Description: Experimental Example 3: Solubility Test

C#Cc1cc(Oc2cnc(N)nc2N)c(C(C)C)cn1 [Free base, 5-((2-ethynyl-5-isopropylpyridin-4-yl)oxy)pyrimidine-2,4-diamine] gave a solubility at 30 min (30 min) of 80 µg/mL (≈ 297 µM), a solubility at 2 h (2 h) of 80 µg/mL (≈ 297 µM) and a solubility at 24 h (24 h) of 110 µg/mL (≈ 408 µM).
